Laboratory results taken from US20240043404A1 (AbbVie Inc., priority 2009, published 2024).

Tested on: RS4;11 cells
Assay: RS4;11 cell viability assay (CellTiter Glo);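 further: acute lymphoblastic leukemia line RS4,11, EC50 derived from percentage of viable cells after treatment relative to untreated controls, cell killing taken as a measure of Bcl-2 inhibition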
Type: cell-based, human
Conditions: 50,000 cells per well, 10% human serum, 48 hours; read-out: RS4; 11 EC50 Values
Description: The acute lymphoblastic leukemia (ALL) cell line RS4;11 was used as the primary human cell line to assess the cellular activity of Bcl-2 selective agents in vitro and their efficacy in vivo.
Cell cytotoxicity EC50 values were assessed using CellTiter Glo (Promega) according to the manufacturer's recommendations. The EC50 values were determined as a percentage of viable cells following treatment compared to the untreated control cells.

Structure (SMILES) | EC50 [nM]
CC1(C)CCC(CN2CCN(c3ccc(C(=O)NS(=O)(=O)c4ccc(NCC56CC7CC(C5)C(O)C(C7)C6)c([N+](=O)[O-])c4)c(Oc4cnc5[nH]ccc5c4)c3)CC2)=C(c2ccc(Cl)cc2)C1 (stereo not drawn) [Example 199, 4-(4-{[2-(4-chlorophenyl)-4,4-dimethylcyclohex-1-en-1-yl]methyl}piperazin-1-yl)-N-{[4-({[(E)-4-hydroxy-1-adamantyl]methyl}amino)-3-nitrophenyl]sulfonyl}-2-(1H-pyrrolo[2,3-b]pyridin-5-yloxy)benzamide] | 5.06
CC1(C)CCC(CN2CCN(c3ccc(C(=O)NS(=O)(=O)c4ccc(NCC56CC7CC(C5)C(O)C(C7)C6)c([N+](=O)[O-])c4)c(Oc4cnc5[nH]ccc5c4)c3)CC2)=C(c2ccc(Cl)cc2)C1 (stereo not drawn) [Example 200, 4-(4-{[2-(4-chlorophenyl)-4,4-dimethylcyclohex-1-en-1-yl]methyl}piperazin-1-yl)-N-{[4-({[(Z)-4-hydroxy-1-adamantyl]methyl}amino)-3-nitrophenyl]sulfonyl}-2-(1H-pyrrolo[2,3-b]pyridin-5-yloxy)benzamide] | 11

Same assay, conditions: Homo sapiens, RS4-11, 48 h, 50,000 cells per well, 10% human serum, 48 hours; read-out: RS4; 11 EC50 Values

Structure (SMILES) | EC50 [nM]
CC1(C)CCC(CN2CCN(c3ccc(C(=O)NS(=O)(=O)c4ccc(NCc5ccc(O)cc5)c([N+](=O)[O-])c4)c(Oc4cnc5[nH]ccc5c4)c3)CC2)=C(c2ccc(Cl)cc2)C1 [Example 185, 4-(4-{[2-(4-chlorophenyl)-4,4-dimethylcyclohex-1-en-1-yl]methyl}piperazin-1-yl)-N-({4-[(4-hydroxybenzyl)amino]-3-nitrophenyl}sulfonyl)-2-(1H-pyrrolo[2,3-b]pyridin-5-yloxy)benzamide] | 27.5
CC1(C)CCC(CN2CCN(c3ccc(C(=O)NS(=O)(=O)c4ccc(NCc5cccc(O)c5)c([N+](=O)[O-])c4)c(Oc4cnc5[nH]ccc5c4)c3)CC2)=C(c2ccc(Cl)cc2)C1 [Example 186, 4-(4-{[2-(4-chlorophenyl)-4,4-dimethylcyclohex-1-en-1-yl]methyl}piperazin-1-yl)-N-({4-[(3-hydroxybenzyl)amino]-3-nitrophenyl}sulfonyl)-2-(1H-pyrrolo[2,3-b]pyridin-5-yloxy)benzamide] | 64.4
CC1(C)CCC(CN2CCN(c3ccc(C(=O)NS(=O)(=O)c4ccc(NCc5cccc(OC(F)F)c5)c([N+](=O)[O-])c4)c(Oc4cnc5[nH]ccc5c4)c3)CC2)=C(c2ccc(Cl)cc2)C1 [Example 187, 4-(4-{[2-(4-chlorophenyl)-4,4-dimethylcyclohex-1-en-1-yl]methyl}piperazin-1-yl)-N-[(4-{[3-(difluoromethoxy)benzyl]amino}-3-nitrophenyl)sulfonyl]-2-(1H-pyrrolo[2,3-b]pyridin-5-yloxy)benzamide] | 215
CC1(C)CCC(CN2CCN(c3ccc(C(=O)NS(=O)(=O)c4ccc(N[C@H]5CC[C@H](NS(C)(=O)=O)CC5)c([N+](=O)[O-])c4)c(Oc4cnc5[nH]ccc5c4)c3)CC2)=C(c2ccc(Cl)cc2)C1 [Example 189, Trans-4-(4-{[2-(4-chlorophenyl)-4,4-dimethylcyclohex-1-en-1-yl]methyl}piperazin-1-yl)-N-{[4-({4-[(methylsulfonyl)amino]cyclohexyl}amino)-3-nitrophenyl]sulfonyl}-2-(1H-pyrrolo[2,3-b]pyridin-5-yloxy)benzamide] | 144
CC1(C)CCC(CN2CCN(c3ccc(C(=O)NS(=O)(=O)c4ccc(NC5CCN(C6CC6)CC5)c(S(=O)(=O)C(F)(F)F)c4)c(Oc4cnc5[nH]ccc5c4)c3)CC2)=C(c2ccc(Cl)cc2)C1 [Example 190, 4-(4-{[2-(4-chlorophenyl)-4,4-dimethylcyclohex-1-en-1-yl]methyl}piperazin-1-yl)-N-({4-[(1-cyclopropylpiperidin-4-yl)amino]-3-[(trifluoromethyl)sulfonyl]phenyl}sulfonyl)-2-(1H-pyrrolo[2,3-b]pyridin-5-yloxy)benzamide] | 551
CC1(C)CCC(CN2CCN(c3ccc(C(=O)NS(=O)(=O)c4ccc(OCC5(F)CCN(C6CCOCC6)CC5)c([N+](=O)[O-])c4)c(Oc4cnc5[nH]ccc5c4)c3)CC2)=C(c2ccc(Cl)cc2)C1 [Example 192, 4-(4-{[2-(4-chlorophenyl)-4,4-dimethylcyclohex-1-en-1-yl]methyl}piperazin-1-yl)-N-({4-[(4-fluoro-1-tetrahydro-2H-pyran-4-ylpiperidin-4-yl)methoxy]-3-nitrophenyl}sulfonyl)-2-(1H-pyrrolo[2,3-b]pyridin-5-yloxy)benzamide] | 2.41
CC1(C)CCC(CN2CCN(c3ccc(C(=O)NS(=O)(=O)c4ccc(OCC5(F)CCN(C6CCOC6)CC5)c([N+](=O)[O-])c4)c(Oc4cnc5[nH]ccc5c4)c3)CC2)=C(c2ccc(Cl)cc2)C1 (stereo not drawn) [Example 193, 4-(4-{[2-(4-chlorophenyl)-4,4-dimethylcyclohex-1-en-1-yl]methyl}piperazin-1-yl)-N-({4-[(4-fluoro-1-tetrahydrofuran-3-ylpiperidin-4-yl)methoxy]-3-nitrophenyl}sulfonyl)-2-(1H-pyrrolo[2,3-b]pyridin-5-yloxy)benzamide] | 0.76
CC1(C)CCC(CN2CCN(c3ccc(C(=O)NS(=O)(=O)c4ccc(OCC5(F)CCN(S(C)(=O)=O)CC5)c([N+](=O)[O-])c4)c(Oc4cnc5[nH]ccc5c4)c3)CC2)=C(c2ccc(Cl)cc2)C1 [Example 194, 4-(4-{[2-(4-chlorophenyl)-4,4-dimethylcyclohex-1-en-1-yl]methyl}piperazin-1-yl)-N-[(4-{[4-fluoro-1-(methylsulfonyl)piperidin-4-yl]methoxy}-3-nitrophenyl)sulfonyl]-2-(1H-pyrrolo[2,3-b]pyridin-5-yloxy)benzamide] | 8.19
CC1(C)CCC(CN2CCN(c3ccc(C(=O)NS(=O)(=O)c4ccc(NC[C@H]5CCN(C6COC6)C5)c([N+](=O)[O-])c4)c(Oc4cnc5[nH]ccc5c4)c3)CC2)=C(c2ccc(Cl)cc2)C1 [Example 195, 4-(4-{[2-(4-chlorophenyl)-4,4-dimethylcyclohex-1-en-1-yl]methyl}piperazin-1-yl)-N-{[3-nitro-4-({[(3R)-1-oxetan-3-ylpyrrolidin-3-yl]methyl}amino)phenyl]sulfonyl}-2-(1H-pyrrolo[2,3-b]pyridin-5-yloxy)benzamide] | 2.07
CN(C)CCCOc1ccc(CNc2ccc(S(=O)(=O)NC(=O)c3ccc(N4CCN(CC5=C(c6ccc(Cl)cc6)CC(C)(C)CC5)CC4)cc3Oc3cnc4[nH]ccc4c3)cc2[N+](=O)[O-])cc1 [Example 197, 4-(4-{[2-(4-chlorophenyl)-4,4-dimethylcyclohex-1-en-1-yl]methyl}piperazin-1-yl)-N-{[4-({4-[3-(dimethylamino)propoxy]benzyl}amino)-3-nitrophenyl]sulfonyl}-2-(1H-pyrrolo[2,3-b]pyridin-5-yloxy)benzamide] | 12.5
CC1(C)CCC(CN2CCN(c3ccc(C(=O)NS(=O)(=O)c4ccc(NCc5ccc(OCCN6CCOCC6)cc5)c([N+](=O)[O-])c4)c(Oc4cnc5[nH]ccc5c4)c3)CC2)=C(c2ccc(Cl)cc2)C1 [Example 198, 4-(4-{[2-(4-chlorophenyl)-4,4-dimethylcyclohex-1-en-1-yl]methyl}piperazin-1-yl)-N-[(4-{[4-(2-morpholin-4-ylethoxy)benzyl]amino}-3-nitrophenyl)sulfonyl]-2-(1H-pyrrolo[2,3-b]pyridin-5-yloxy)benzamide] | 36.2
CC1(C)CCC(CN2CCN(c3ccc(C(=O)NS(=O)(=O)c4ccc(OCC5C[C@H]6C=C[C@@H]5C6)c([N+](=O)[O-])c4)c(Oc4cnc5[nH]ccc5c4)c3)CC2)=C(c2ccc(Cl)cc2)C1 (stereo partly drawn) [Example 201, N-({4-[(1S,4S)-bicyclo[2.2.1]hept-5-en-2-ylmethoxy]-3-nitrophenyl}sulfonyl)-4-(4-{[2-(4-chlorophenyl)-4,4-dimethylcyclohex-1-en-1-yl]methyl}piperazin-1-yl)-2-(1H-pyrrolo[2,3-b]pyridin-5-yloxy)benzamide] | 591
CN1CC(Nc2ccc(S(=O)(=O)NC(=O)c3ccc(N4CCN(CC5=C(c6ccc(Cl)cc6)CC(C)(C)CC5)CC4)cc3Oc3cnc4[nH]ccc4c3)cc2[N+](=O)[O-])CC1=O (stereo not drawn) [Example 202, 4-(4-{[2-(4-chlorophenyl)-4,4-dimethylcyclohex-1-en-1-yl]methyl}piperazin-1-yl)-N-({4-[(1-methyl-5-oxopyrrolidin-3-yl)amino]-3-nitrophenyl}sulfonyl)-2-(1H-pyrrolo[2,3-b]pyridin-5-yloxy)benzamide] | 43.8
CC1(C)CCC(CN2CCN(c3ccc(C(=O)NS(=O)(=O)c4ccc(OCC5CCCC(=O)C5)c([N+](=O)[O-])c4)c(Oc4cnc5[nH]ccc5c4)c3)CC2)=C(c2ccc(Cl)cc2)C1 (stereo not drawn) [Example 205, 4-(4-{[2-(4-chlorophenyl)-4,4-dimethylcyclohex-1-en-1-yl]methyl}piperazin-1-yl)-N-({3-nitro-4-[(3-oxocyclohexyl)methoxy]phenyl}sulfonyl)-2-(1H-pyrrolo[2,3-b]pyridin-5-yloxy)benzamide] | 10.6
CC1(C)C=CC(c2ccc(Cl)cc2)=C(CN2CCN(c3ccc(C(=O)NS(=O)(=O)c4ccc(NCC5CCOCC5)c([N+](=O)[O-])c4)c(Oc4cnc5[nH]ccc5c4)c3)CC2)C1 [Example 206, 4-(4-{[2-(4-chlorophenyl)-5,5-dimethylcyclohexa-1,3-dien-1-yl]methyl}piperazin-1-yl)-N-({3-nitro-4-[(tetrahydro-2H-pyran-4-ylmethyl)amino]phenyl}sulfonyl)-2-(1H-pyrrolo[2,3-b]pyridin-5-yloxy)benzamide] | 52.9
CC1(C)CCC(CN2CCN(c3ccc(C(=O)NS(=O)(=O)c4ccc(N[C@@H]5CCN(C(CF)CF)C5)c([N+](=O)[O-])c4)c(Oc4cnc5[nH]ccc5c4)c3)CC2)=C(c2ccc(Cl)cc2)C1 [Example 207, 4-(4-{[2-(4-chlorophenyl)-4,4-dimethylcyclohex-1-en-1-yl]methyl}piperazin-1-yl)-N-{[4-({(3R)-1-[2-fluoro-1-(fluoromethyl)ethyl]pyrrolidin-3-yl}amino)-3-nitrophenyl]sulfonyl}-2-(1H-pyrrolo[2,3-b]pyridin-5-yloxy)benzamide] | 3.76
